Source: PubChem BioAssay (NCI)
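Cultured in 96-well plates, cells were exposed to test compound for 48 hours across five concentrations. TGI: total growth inhibition.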

Key:
Assay in all cases: growth of human tumour cells (NCI), 48 h
SK-OV-3 ovarian = tested on: SK-OV-3 ovarian
HOP-62 NSCLC = tested on: HOP-62 NSCLC
SF-268 CNS = tested on: SF-268 CNS
UACC-62 melanoma = tested on: UACC-62 melanoma
SW-620 colon = tested on: SW-620 colon
OVCAR-3 ovarian = tested on: OVCAR-3 ovarian
NCI-H23 lung = tested on: NCI-H23 lung
SR leukemia = tested on: SR leukemia
EKVX NSCLC = tested on: EKVX NSCLC
SN12C renal = tested on: SN12C renal
SF-295 CNS = tested on: SF-295 CNS
MDA-MB-435 = tested on: MDA-MB-435
SK-MEL-28 melanoma = tested on: SK-MEL-28 melanoma
CCRF-CEM leukemia = tested on: CCRF-CEM leukemia
DU-145 prostate = tested on: DU-145 prostate
CAKI-1 renal = tested on: CAKI-1 renal
UACC-257 melanoma = tested on: UACC-257 melanoma
HT29 colon = tested on: HT29 colon
MCF7 breast = tested on: MCF7 breast
MALME-3M melanoma = tested on: MALME-3M melanoma
RXF 393 renal = tested on: RXF 393 renal
NCI-H460 lung = tested on: NCI-H460 lung
OVCAR-4 ovarian = tested on: OVCAR-4 ovarian
M14 melanoma = tested on: M14 melanoma
U251 CNS = tested on: U251 CNS
SNB-75 CNS = tested on: SNB-75 CNS
HS 578T breast = tested on: HS 578T breast
A549 NSCLC = tested on: A549 NSCLC
NCI-H522 lung = tested on: NCI-H522 lung
BT-549 breast = tested on: BT-549 breast
COLO 205 colon = tested on: COLO 205 colon
TK-10 renal = tested on: TK-10 renal
ACHN renal = tested on: ACHN renal
786-0 renal = tested on: 786-0 renal
UO-31 renal = tested on: UO-31 renal
HCT-116 colon = tested on: HCT-116 colon
IGROV1 ovarian = tested on: IGROV1 ovarian
OVCAR-5 ovarian = tested on: OVCAR-5 ovarian
A498 renal = tested on: A498 renal
SK-MEL-5 melanoma = tested on: SK-MEL-5 melanoma
LOX IMVI melanoma = tested on: LOX IMVI melanoma
PC-3 prostate = tested on: PC-3 prostate
MDA-N = tested on: MDA-N
HOP-92 NSCLC = tested on: HOP-92 NSCLC
MDA-MB-231 breast = tested on: MDA-MB-231 breast
RPMI-8226 leukemia = tested on: RPMI-8226 leukemia
K-562 leukemia = tested on: K-562 leukemia
KM12 colon = tested on: KM12 colon
SNB-19 CNS = tested on: SNB-19 CNS
NCI/ADR-RES ovarian = tested on: NCI/ADR-RES ovarian
OVCAR-8 ovarian = tested on: OVCAR-8 ovarian
HCT-15 colon = tested on: HCT-15 colon
MOLT-4 leukemia = tested on: MOLT-4 leukemia
T-47D breast = tested on: T-47D breast
SK-MEL-2 melanoma = tested on: SK-MEL-2 melanoma

## O=C1CCC2(O)C3Cc4ccc(Oc5nnnn5-c5ccccc5)c5c4C2(CCN3CC2CC2)C1O5 (stereo not given)
SK-OV-3 ovarian
  TGI: > 100 µM
HOP-62 NSCLC
  TGI: > 100 µM
SF-268 CNS
  TGI: > 100 µM
UACC-62 melanoma
  TGI: 76 µM
SW-620 colon
  TGI: > 100 µM
OVCAR-3 ovarian
  TGI: > 100 µM
NCI-H23 lung
  TGI: > 100 µM
SR leukemia
  TGI: 42.9 µM
EKVX NSCLC
  TGI: > 100 µM
SN12C renal
  TGI: > 100 µM
SF-295 CNS
  TGI: > 100 µM
MDA-MB-435
  TGI: 37 µM
SK-MEL-28 melanoma
  TGI: 30.8 µM
CCRF-CEM leukemia
  TGI: 47.4 µM
DU-145 prostate
  TGI: > 100 µM
CAKI-1 renal
  TGI: > 100 µM
UACC-257 melanoma
  TGI: 45.7 µM
HT29 colon
  TGI: 68.8 µM
MCF7 breast
  TGI: > 100 µM
MALME-3M melanoma
  TGI: 32.7 µM
RXF 393 renal
  TGI: > 100 µM
NCI-H460 lung
  TGI: > 100 µM
OVCAR-4 ovarian
  TGI: > 100 µM
M14 melanoma
  TGI: 33.5 µM
U251 CNS
  TGI: > 100 µM
SNB-75 CNS
  TGI: > 100 µM
HS 578T breast
  TGI: > 100 µM
A549 NSCLC
  TGI: > 100 µM
NCI-H522 lung
  TGI: 61.6 µM
BT-549 breast
  TGI: > 100 µM
COLO 205 colon
  TGI: 32.9 µM
TK-10 renal
  TGI: > 100 µM
ACHN renal
  TGI: > 100 µM
786-0 renal
  TGI: 41.2 µM
UO-31 renal
  TGI: 61.1 µM
HCT-116 colon
  TGI: > 100 µM
IGROV1 ovarian
  TGI: > 100 µM
OVCAR-5 ovarian
  TGI: > 100 µM
A498 renal
  TGI: 90.1 µM
SK-MEL-5 melanoma
  TGI: 25.9 µM
LOX IMVI melanoma
  TGI: 84.6 µM
PC-3 prostate
  TGI: > 100 µM
MDA-N
  TGI: 51 µM
HOP-92 NSCLC
  TGI: > 100 µM
MDA-MB-231 breast
  TGI: > 100 µM
RPMI-8226 leukemia
  TGI: > 100 µM
K-562 leukemia
  TGI: > 100 µM
KM12 colon
  TGI: > 100 µM
SNB-19 CNS
  TGI: > 100 µM
NCI/ADR-RES ovarian
  TGI: > 100 µM
OVCAR-8 ovarian
  TGI: > 100 µM
HCT-15 colon
  TGI: > 100 µM
MOLT-4 leukemia
  TGI: > 100 µM
T-47D breast
  TGI: > 100 µM
SK-MEL-2 melanoma
  TGI: 53.1 µM
